From patent US8822754B2, “Ecdysone receptor-based inducible gene expression system” (Intrexon Corporation, priority 2000, dated 2014)

Assays:
CfVgRXR + MmRXR = assay: Transactivation of reporter genes through switch 1.9 in 3T3 cells; assay type: cell-based, Choristoneura fumiferana; details: switch 1.9 CfVgRXR + MmRXR, pIND(SP1)LacZ
Procedure: This example was prepared in the same way as switch 1.8 except DinEcR was replaced with a truncated CfEcR comprising a partial A/B domain and the complete CDEF domains [SEQ ID NO: 62 (polynucleotide) and SEQ ID NO: 63 (polypeptide)].
(§1) The cells were plated when they reached 50% confluency.
(§2) Cells were harvested 24-48 hr after adding ligands. […] Twenty μl of lysate was assayed.

GAL4RXR + VP16DmEcR = molecular target: T1, GAL4RXR + VP16DmEcR (Drosophila melanogaster, UniProt P34021); assay: Transactivation of reporter genes through switch 1.4 in 3T3 cells; assay type: cell-based; details: switch 1.4 GAL4RXR + VP16DmEcR, pGAL4RELuc
T1 sequence (P34021 254-878): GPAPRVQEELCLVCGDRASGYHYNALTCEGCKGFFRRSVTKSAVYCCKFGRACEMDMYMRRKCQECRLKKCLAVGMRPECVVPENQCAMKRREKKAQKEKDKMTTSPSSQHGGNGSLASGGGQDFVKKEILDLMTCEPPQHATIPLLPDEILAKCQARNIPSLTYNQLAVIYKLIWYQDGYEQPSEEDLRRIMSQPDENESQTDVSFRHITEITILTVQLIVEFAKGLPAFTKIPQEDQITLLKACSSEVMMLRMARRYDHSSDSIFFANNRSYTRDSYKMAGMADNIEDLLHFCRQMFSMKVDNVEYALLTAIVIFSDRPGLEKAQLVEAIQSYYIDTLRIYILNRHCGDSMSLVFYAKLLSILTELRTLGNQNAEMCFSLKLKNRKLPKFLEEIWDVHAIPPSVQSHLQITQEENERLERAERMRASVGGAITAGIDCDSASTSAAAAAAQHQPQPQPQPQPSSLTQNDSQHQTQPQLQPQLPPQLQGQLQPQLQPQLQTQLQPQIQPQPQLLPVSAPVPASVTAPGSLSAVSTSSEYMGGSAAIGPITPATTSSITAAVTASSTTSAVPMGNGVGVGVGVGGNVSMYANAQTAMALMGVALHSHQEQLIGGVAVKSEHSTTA
T1 sequence (P28700 206-467 partner limits assumed): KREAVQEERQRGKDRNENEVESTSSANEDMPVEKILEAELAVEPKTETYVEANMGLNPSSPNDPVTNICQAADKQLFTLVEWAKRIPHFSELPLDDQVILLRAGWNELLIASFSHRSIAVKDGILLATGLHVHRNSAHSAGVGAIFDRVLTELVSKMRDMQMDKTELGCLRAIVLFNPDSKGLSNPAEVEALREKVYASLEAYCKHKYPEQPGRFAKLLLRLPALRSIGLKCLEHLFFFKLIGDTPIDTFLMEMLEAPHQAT
Procedure: This construct was prepared in the same way as switch 1.3 except CfEcRCDEF was replaced with DmEcRCDEF (SEQ ID NO: 6).
as §1, §2

GAL4CfEcRVP16 = assay: Transactivation of reporter genes through switch 1.6 in 3T3 cells; assay type: cell-based, Choristoneura fumiferana; details: switch 1.6 GAL4CfEcRVP16, pGAL4RELuc
Procedure: This construct was prepared so that both the GAL4 DNABD and the VP16AD were placed on the same molecule. GAL4DNABD (SEQ ID NO: 41) and VP16AD (SEQ ID NO: 45) were fused to CfEcRDEF (SEQ ID NO: 3) at N- and C-termini respectively.
as §1, §2

CfEcR/RXR-based switch = assay: Luciferase reporter assay of truncated CfEcR and MmRXR receptor pairs in NIH3T3 cells (Example 2); assay type: cell-based, Choristoneura fumiferana; details: NIH3T3 cells, 0, 1, 5 or 25 uM ligand, 48 hr; FIGS. 11-14
Procedure: Briefly, polynucleotides encoding EcR or RXR receptors were truncated at the junctions of A/B, C, D, E and F domains and fused to either a GAL4 DNA binding domain encoding polynucleotide (SEQ ID NO: 41) for CfEcR, or a VP16 activation domain encoding polynucleotide (SEQ ID NO: 45) for MmRXR as described in Example 1. The resulting receptor truncation/fusion polypeptides were assayed in NIH3T3 cells. Plasmid pFRLUC (Stratagene) encoding a luciferase polypeptide was used as a reporter gene construct and pTKRL (Promega) encoding a Renilla luciferase polypeptide under the control of the constitutive TK promoter was used to normalize the transfections as described above. The analysis was performed in triplicates and mean luciferase counts were determined as described above.
Gene expression cassettes comprising polynucleotides encoding either full length or truncated CfEcR polypeptides fused to a GALA. […] The cells were harvested, lysed and luciferase reporter activity was measured in the cell lysates. […]

With `CCc1c(OC)cccc1C(=O)NN(C(=O)c1cc(C)cc(C)c1)C(C)(C)C` [N-(2-ethyl-3-methoxybenzoyl)-N′-(3,5-dimethylbenzoyl)-N′-tert-butylhydrazine] the “Mean Fold Activation Through N-(2-ethyl-3-methoxybenzoyl)-N′-(3,5-dimethylbenzoyl)-N′-t-butylhydrazine” value (CfVgRXR + MmRXR) was 19 fold, the “Mean Fold Activation Through N-(2-ethyl-3-methoxybenzoyl)-N′-(3,5-dimethylbenzoyl)-N′-t-butylhydrazine” value (GAL4RXR + VP16DmEcR) was 269 fold and the “Mean Fold Activation Through N-(2-ethyl-3-methoxybenzoyl)-N′-(3,5-dimethylbenzoyl)-N′-t-butylhydrazine” value (GAL4CfEcRVP16) was 7 fold. The “sensitivity of the EcR/RXR switch to the ligand” value (CfEcR/RXR-based switch) was “much more sensitive”.
